target: T1, Alpha-methylacyl-CoA racemase (Rattus norvegicus, UniProt P70473); experiment: AMACR Inhibition Assay; settings: pH 7; 37 °C
T1 sequence (P70473 whole entry): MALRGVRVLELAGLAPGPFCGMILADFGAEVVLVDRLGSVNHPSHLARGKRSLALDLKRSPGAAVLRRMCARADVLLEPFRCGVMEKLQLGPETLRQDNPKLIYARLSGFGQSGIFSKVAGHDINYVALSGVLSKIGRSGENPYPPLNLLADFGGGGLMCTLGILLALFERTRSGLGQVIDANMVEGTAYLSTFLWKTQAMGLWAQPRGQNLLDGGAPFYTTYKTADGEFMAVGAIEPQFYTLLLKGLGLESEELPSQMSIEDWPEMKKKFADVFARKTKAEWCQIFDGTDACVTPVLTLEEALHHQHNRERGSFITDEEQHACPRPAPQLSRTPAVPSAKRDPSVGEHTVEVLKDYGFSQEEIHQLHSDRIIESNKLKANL
Procedure: AMACR activity was determined by monitoring the interconversion of the (25R/S)-isomer of THC-CoA. Reaction product was analyzed by resolution of (25S)-or (25R)-THC-CoA using HPLC, which was carried out with a reversed-phase C18-column and a linear gradient of methanol in potassium phosphate buffer (50 mM, pH 5.3). Kinetic parameters were determined using direct linear plot analysis.

| SMILES | Ki |
| --- | --- |
| CCCCCCCCCCCCCC(C(=O)SCCNC(=O)CCNC(=O)C(O)C(C)(C)COP(=O)(O)OP(=O)(O)OC[C@H]1O[C@@H](n2cnc3c(N)ncnc32)[C@H](O)[C@@H]1OP(=O)(O)O)C(F)F (some centres not stated) [2-Difluoromethylpentadecanoyl-CoA, 4] | 20 µM |
| CCCCCCCCCCCCC(C(=O)SCCNC(=O)CCNC(=O)C(O)C(C)(C)COP(=O)(O)OP(=O)(O)OC[C@H]1O[C@@H](n2cnc3c(N)ncnc32)[C@H](O)[C@@H]1OP(=O)(O)O)C(F)(F)F (some centres not stated) [2-Trifluoromethyltetradecanoyl-CoA, 3] | 0.9 µM |
| CCCCCCCCCCCCC(C)C(=O)SCCNC(=O)CCNC(=O)C(O)C(C)(C)COP(=O)(O)OP(=O)(O)OC[C@H]1O[C@@H](n2cnc3c(N)ncnc32)[C@H](O)[C@@H]1OP(=O)(O)O (some centres not stated) [2-methylmyristoyl CoA, 22] | 137 µM |

The remaining lines, values ahead:

| Ki | SMILES |
| --- | --- |
| 2.3 µM | CCCCCCCCCCCCC[C@@H](F)[C@H](C)C(=O)SCCNC(=O)CCNC(=O)C(O)C(C)(C)COP(=O)(O)OP(=O)(O)OC[C@H]1O[C@@H](n2cnc3c(N)ncnc32)[C@H](O)[C@@H]1OP(=O)(O)O (stereo partly drawn) [(2S,3R)-3-fluoro-2-methylhexadecanoyl-CoA, 6] |
| 1.3 µM | CCCCCCCCCCCCC[C@H](F)[C@@H](C)C(=O)SCCNC(=O)CCNC(=O)C(O)C(C)(C)COP(=O)(O)OP(=O)(O)OC[C@H]1O[C@@H](n2cnc3c(N)ncnc32)[C@H](O)[C@@H]1OP(=O)(O)O (stereo partly drawn) [((2R,3S)-3-Fluoro-2-methylhexadecanoyl-CoA, 5] |
| 3.8 µM | C[C@@H](CC[C@H](F)[C@@H](C)C(=O)SCCNC(=O)CCNC(=O)C(O)C(C)(C)COP(=O)(O)OP(=O)(O)OC[C@H]1O[C@@H](n2cnc3c(N)ncnc32)[C@H](O)[C@@H]1OP(=O)(O)O)[C@H]1CC[C@H]2[C@@H]3[C@H](O)C[C@@H]4C[C@H](O)CC[C@]4(C)[C@H]3C[C@H](O)[C@]12C (some centres not stated) [THC-CoA Analogue, 7] |
| 45 µM | CCCCCCC(C)C(=O)SCCNC(=O)CCNC(=O)C(O)C(C)(C)COP(=O)(O)OP(=O)(O)OC[C@H]1O[C@@H](n2cnc3c(N)ncnc32)[C@H](O)[C@@H]1OP(=O)(O)O (stereo partly drawn) [{[(2R,3S,4R,5R)-5-(6-amino-9H-purin-9-yl)-4-hydroxy-2-({[hydroxy({[hydroxy(3-hydroxy-2,2-dimethyl-3-{[2-({2-[(2-methyloctanoyl)sulfanyl]ethyl}carbamoyl)ethyl]carbamoyl}propoxy)phosphoryl]oxy})phosphoryl]oxy}methyl)oxolan-3-yl]oxy}phosphonic acid] |

Source: BindingDB's records for doi:10.1021/jm0702377 (University of Liverpool, 2007)
